Results on 13 compounds are retold here after ChEMBL document CHEMBL3352612, “Design, synthesis, and biological activities of 1-aryl-1,4-diazepan-2-one derivatives as novel triple reuptake inhibitors” (Bioorg Med Chem Lett, 2014).

The source made the active and inactive calls. The rule behind the calls is not given here.

Data set [1] deals with Sodium-dependent dopamine transporter (Homo sapiens, UniProt Q01959). In words: Inhibition of [3H]dopamine reuptake at human DAT expressed in CHO cells after 60 mins by scintillation counting. The class given is cell-based.
Sequence of Sodium-dependent dopamine transporter (Q01959 whole entry): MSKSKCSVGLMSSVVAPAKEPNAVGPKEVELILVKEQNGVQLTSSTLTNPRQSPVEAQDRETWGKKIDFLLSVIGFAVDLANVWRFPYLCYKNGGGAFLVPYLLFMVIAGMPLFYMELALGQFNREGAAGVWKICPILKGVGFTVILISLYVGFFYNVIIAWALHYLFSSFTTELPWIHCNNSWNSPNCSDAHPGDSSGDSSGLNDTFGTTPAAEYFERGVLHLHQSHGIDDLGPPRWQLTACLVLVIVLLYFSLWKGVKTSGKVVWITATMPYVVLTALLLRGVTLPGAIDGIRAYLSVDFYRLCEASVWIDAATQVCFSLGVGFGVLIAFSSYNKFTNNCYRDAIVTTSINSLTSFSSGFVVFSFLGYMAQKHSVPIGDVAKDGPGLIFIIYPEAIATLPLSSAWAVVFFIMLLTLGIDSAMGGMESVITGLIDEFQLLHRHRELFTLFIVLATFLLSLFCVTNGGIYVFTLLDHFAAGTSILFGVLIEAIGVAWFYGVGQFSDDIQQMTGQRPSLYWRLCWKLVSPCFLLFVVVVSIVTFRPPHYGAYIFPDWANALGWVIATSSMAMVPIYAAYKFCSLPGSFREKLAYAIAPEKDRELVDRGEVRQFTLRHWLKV
Data set [2] deals with Sodium-dependent serotonin transporter (Homo sapiens, UniProt P31645). In words: Inhibition of [3H]serotonin reuptake at human SERT expressed in CHO cells after 20 mins by scintillation counting. The class given is cell-based.
Sequence of Sodium-dependent serotonin transporter (P31645 whole entry): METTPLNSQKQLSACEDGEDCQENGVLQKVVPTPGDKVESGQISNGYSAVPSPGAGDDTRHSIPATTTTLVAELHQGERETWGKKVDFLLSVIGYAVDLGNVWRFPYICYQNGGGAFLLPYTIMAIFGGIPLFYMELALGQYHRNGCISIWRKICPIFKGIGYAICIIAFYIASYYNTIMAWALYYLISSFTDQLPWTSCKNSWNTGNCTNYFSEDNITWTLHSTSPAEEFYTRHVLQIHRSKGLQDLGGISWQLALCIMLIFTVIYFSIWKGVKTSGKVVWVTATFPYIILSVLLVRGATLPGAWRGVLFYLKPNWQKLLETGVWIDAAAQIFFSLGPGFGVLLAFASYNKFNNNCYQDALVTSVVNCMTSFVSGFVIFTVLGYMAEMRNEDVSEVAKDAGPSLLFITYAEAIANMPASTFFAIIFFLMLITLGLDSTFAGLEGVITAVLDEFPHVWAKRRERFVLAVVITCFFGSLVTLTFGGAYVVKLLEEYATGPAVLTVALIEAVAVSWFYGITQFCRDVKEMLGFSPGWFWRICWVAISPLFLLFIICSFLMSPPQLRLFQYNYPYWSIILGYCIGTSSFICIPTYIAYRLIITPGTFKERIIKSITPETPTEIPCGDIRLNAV
For data set [3], the target named is Sodium-dependent noradrenaline transporter (Homo sapiens, UniProt P23975). The experiment in a line: Inhibition of [3H]norepinephrine reuptake at human NET expressed in CHO cells after 45 mins by scintillation counting. The class given is cell-based.
Sequence of Sodium-dependent noradrenaline transporter (P23975 whole entry): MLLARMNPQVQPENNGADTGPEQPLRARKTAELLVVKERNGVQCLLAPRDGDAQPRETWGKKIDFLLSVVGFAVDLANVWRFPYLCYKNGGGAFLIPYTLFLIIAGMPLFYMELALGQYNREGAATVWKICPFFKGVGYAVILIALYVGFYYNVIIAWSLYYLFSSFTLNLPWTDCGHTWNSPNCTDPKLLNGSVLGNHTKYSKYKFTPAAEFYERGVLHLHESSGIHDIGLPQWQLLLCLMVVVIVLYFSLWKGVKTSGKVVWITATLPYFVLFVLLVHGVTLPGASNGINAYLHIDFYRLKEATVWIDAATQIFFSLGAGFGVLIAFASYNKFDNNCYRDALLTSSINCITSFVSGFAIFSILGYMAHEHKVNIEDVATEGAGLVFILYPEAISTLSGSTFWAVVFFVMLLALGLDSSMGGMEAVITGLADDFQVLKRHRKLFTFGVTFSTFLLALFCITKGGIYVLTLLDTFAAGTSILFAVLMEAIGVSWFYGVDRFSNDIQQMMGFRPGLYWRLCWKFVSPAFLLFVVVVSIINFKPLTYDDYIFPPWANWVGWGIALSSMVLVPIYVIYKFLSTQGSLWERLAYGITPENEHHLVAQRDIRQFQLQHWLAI
Data set [4] concerns the target Voltage-gated inwardly rectifying potassium channel KCNH2 (Homo sapiens, UniProt Q12809). In words: Inhibition of human ERG.
In data set [5] the test system is Mus musculus. The experiment in a line: Antidepressant activity in po dosed ICR mouse assessed as immobility time measured 60 mins post dose by tail-suspension test. It is filed as functional, organism-based.
In data set [6] the test system is Mus musculus. The experiment in a line: Increase in extracellular norepinephrine level in ICR mouse prefrontal cortex at 3 mg/kg, po measured at 120 mins post dose relative to basal level by microdialysis. It is filed as functional.
For the next data set, the target named is Cytochrome P450 2D6 (Homo sapiens, UniProt P10635). In words: Inhibition of CYP2D6 (unknown origin). It is filed as ADME.
Sequence of Cytochrome P450 2D6 (P10635 whole entry): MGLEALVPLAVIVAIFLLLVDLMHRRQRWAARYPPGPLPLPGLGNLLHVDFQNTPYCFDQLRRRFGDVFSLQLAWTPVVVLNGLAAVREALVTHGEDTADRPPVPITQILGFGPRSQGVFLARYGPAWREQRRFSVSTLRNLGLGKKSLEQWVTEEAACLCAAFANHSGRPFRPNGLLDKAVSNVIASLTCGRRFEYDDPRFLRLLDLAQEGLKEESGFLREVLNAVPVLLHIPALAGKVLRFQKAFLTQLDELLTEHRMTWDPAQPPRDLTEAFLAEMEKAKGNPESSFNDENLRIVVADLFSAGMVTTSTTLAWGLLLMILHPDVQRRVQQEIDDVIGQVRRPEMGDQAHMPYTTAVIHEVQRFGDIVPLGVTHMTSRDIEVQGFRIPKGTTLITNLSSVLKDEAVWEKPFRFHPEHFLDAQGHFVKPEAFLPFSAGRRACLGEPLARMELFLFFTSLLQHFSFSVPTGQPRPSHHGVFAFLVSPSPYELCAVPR
For data set [7], the system named is Mus musculus. The experiment in a line: Increase in extracellular 5-HT level in ICR mouse prefrontal cortex at 3 mg/kg, po measured at 120 mins post dose relative to basal level by microdialysis. The class given is functional.
Data set [8] has as its system Mus musculus. The experiment in a line: Antidepressant activity in ICR mouse assessed as immobility time at 3 mg/kg, po measured 60 mins post dose by tail-suspension test. Set-up: dose 3 mg/kg. It is filed as functional, organism-based.
The test system of data set [9] is Mus musculus. The experiment in a line: Increase in extracellular dopamine level in ICR mouse prefrontal cortex at 3 mg/kg, po measured at 120 mins post dose relative to basal level by microdialysis. It is filed as functional.

Sequence of Voltage-gated inwardly rectifying potassium channel KCNH2 (Q12809 whole entry): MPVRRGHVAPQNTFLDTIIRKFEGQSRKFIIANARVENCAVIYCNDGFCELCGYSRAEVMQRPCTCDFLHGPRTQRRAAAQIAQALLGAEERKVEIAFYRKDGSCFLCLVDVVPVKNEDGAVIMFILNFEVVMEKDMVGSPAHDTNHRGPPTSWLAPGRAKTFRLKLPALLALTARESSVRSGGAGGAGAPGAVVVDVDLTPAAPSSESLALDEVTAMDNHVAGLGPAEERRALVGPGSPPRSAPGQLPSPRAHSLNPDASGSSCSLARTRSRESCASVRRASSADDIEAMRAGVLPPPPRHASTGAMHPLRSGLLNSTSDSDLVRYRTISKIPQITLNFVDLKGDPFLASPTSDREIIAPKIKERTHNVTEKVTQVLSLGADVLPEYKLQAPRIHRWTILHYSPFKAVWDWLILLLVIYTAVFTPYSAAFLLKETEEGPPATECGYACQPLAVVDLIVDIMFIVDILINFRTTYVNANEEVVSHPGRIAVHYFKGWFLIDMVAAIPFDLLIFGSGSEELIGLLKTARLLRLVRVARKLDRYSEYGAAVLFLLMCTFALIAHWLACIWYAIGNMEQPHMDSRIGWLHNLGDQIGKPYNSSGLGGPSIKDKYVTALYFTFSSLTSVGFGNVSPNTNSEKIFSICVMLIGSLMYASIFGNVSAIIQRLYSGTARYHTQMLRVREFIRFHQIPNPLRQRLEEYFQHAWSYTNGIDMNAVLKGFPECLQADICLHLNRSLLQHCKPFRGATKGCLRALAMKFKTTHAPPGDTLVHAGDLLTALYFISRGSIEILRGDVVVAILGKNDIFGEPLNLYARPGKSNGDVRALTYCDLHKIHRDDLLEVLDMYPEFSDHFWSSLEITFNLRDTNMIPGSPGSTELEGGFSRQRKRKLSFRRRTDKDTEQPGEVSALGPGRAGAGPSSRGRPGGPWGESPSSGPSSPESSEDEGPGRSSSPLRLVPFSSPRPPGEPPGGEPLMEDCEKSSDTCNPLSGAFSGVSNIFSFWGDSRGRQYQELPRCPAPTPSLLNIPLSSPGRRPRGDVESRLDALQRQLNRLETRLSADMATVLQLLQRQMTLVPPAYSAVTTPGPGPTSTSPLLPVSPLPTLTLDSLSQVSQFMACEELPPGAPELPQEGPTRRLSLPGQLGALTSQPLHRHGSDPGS

With `CC1CCNCC(=O)N1c1ccc(Cl)c(Cl)c1` (racemic), the IC50 (in general, the concentration that inhibits the measured activity by half) in [1] is 4500 nM; in data set [2] it was 1900 nM; in [3], 660 nM.

`O=C1CNCC(F)(F)CN1c1ccc(Cl)c(Cl)c1`: the IC50 in [1] was determined as 8100 nM; in data set [2], 1300 nM; in data set [3], 2000 nM.

For the compound `O=C1CNCC2(CC2)CN1c1ccc(Cl)c(Cl)c1`, the results for the IC50 in data set [1], in [2] and in [3] were 120 nM, 2200 nM and 82 nM, respectively.

As to `C[C@@H]1NCCCN(c2ccc3ccccc3c2)C1=O.Cl`, the “inhibition (INH)” value (in data set [4]; against Cytochrome P450 2D6) was “Not Active” in each case. The Activity entry is “Dose-dependent effect” in the data set with Mus musculus [5], 750% in the data set with Mus musculus [6], 210% in the data set with Mus musculus [7] and 640% in the data set with Mus musculus [9]. Further, the IC50 in [1] was determined as 160 nM; in [2], 83 nM; in data set [3] it was 3.8 nM. Also, in the data set on Mus musculus [8], the result was Active.

On to `CCC1NCCCN(c2ccc(Cl)c(Cl)c2)C1=O.Cl` (racemic), for which the “inhibition (INH)” value (in data set [4]; at Cytochrome P450 2D6) was “Not Active” in each case. Further, the figures for the IC50 in data set [1], in data set [2] and in [3] were 190 nM, 570 nM and 7.7 nM, respectively.

Take `CC1CCN(c2ccc(Cl)c(Cl)c2)C(=O)CN1.Cl` (racemic): the “inhibition (INH)” value (in [4]; on Cytochrome P450 2D6) was “Not Active” each time. The IC50 in data set [1] is over 10000 nM; in data set [2], 4300 nM; in [3], 1700 nM.

Regarding `Cl.O=C1CNCCCN1c1ccc(Cl)c(Cl)c1`, the “inhibition (INH)” value (in data set [4]; against Cytochrome P450 2D6) was “Not Active” in each case. For the same compound, the IC50 was 420 nM in [1], 50 nM in data set [2] and 13 nM in data set [3].

Regarding `CC1NCCCN(c2ccc3ccccc3c2)C1=O.Cl` (racemic), the “inhibition (INH)” value (in data set [4]; on Cytochrome P450 2D6) was “Not Active” throughout. Further, the values for the IC50 in data set [1], in data set [2] and in data set [3] were 340 nM, 200 nM and 14 nM, respectively.

As for `CN1CCCN(c2ccc(Cl)c(Cl)c2)C(=O)C1.Cl`, the “inhibition (INH)” value (in data set [4]; on Cytochrome P450 2D6) was “Not Active” each time. For the same compound, the IC50 in data set [1] is over 10000 nM; in [2], 5500 nM; in data set [3], 3200 nM.

Consider `C[C@H]1NCCCN(c2ccc3ccccc3c2)C1=O`, for which the IC50 in data set [1] is over 10000 nM; in data set [2], 260 nM; in data set [3], 570 nM.

As to `CC1CNCC(=O)N(c2ccc(Cl)c(Cl)c2)C1` (racemic), the IC50 in data set [1] was 4000 nM; in data set [2] it was 2200 nM; in data set [3], 260 nM.

In the case of `CCC1NCCCN(c2ccc3ccccc3c2)C1=O.Cl` (racemic), the “inhibition (INH)” value (in data set [4]; on Cytochrome P450 2D6) was “Not Active” in each case. Moreover, the IC50 in data set [1] came out at 130 nM; in data set [2], 88 nM; in [3], 9.2 nM.

On to `CC1NCCCN(c2ccc(Cl)c(Cl)c2)C1=O.Cl` (racemic), for which the “inhibition (INH)” value (in [4]; on Cytochrome P450 2D6) was “Not Active” in each case. Besides, the results for the IC50 in data set [1], in data set [2] and in [3] were 470 nM, 530 nM and 8 nM, respectively.
